One block for each molecule: values may come before it.
Experiments:
[1] = target: Human CB2R (Cannabinoid receptor 2) (Homo sapiens, UniProt P34972); assay: CB-2 in vitro cAMP (HTRF) assay; assay type: cell-based; settings: HEK cells, cAMP HTRF, 250 nM forskolin; mean where tested more than once; read-out: CB2 HEK_cAMP EC50
Text: (§1) CB1 and CB2 receptors are Gi-coupled GPCR. Activation of CB1 and CB2 receptors results in a decrease in cAMP production. An inverse agonist of the CB1 or CB2 receptor results in the opposite effect, an increase of cAMP production. The principle of this assay is based on HTRF® technology (Homogeneous Time-Resolved Fluorescence). The method is a competitive immunoassay between native cAMP produced by cells and the cAMP labeled with the fluorophore d2. The tracer binding is quantified by a Mab anti-cAMP labeled with Eu3+TBP-NHS Cryptate (supplied as part of the assay kit). The specific signal (i.e. energy transfer) is inversely proportional to the concentration of cAMP in the standard or sample.
Human CB1R (Cannabinoid receptor 1) was stably transfected in HEK-293 cells (DiscoveRx, cat: 93-0200C1). Human CB2R (Cannabinoid receptor 2) was stably transfected in HEK-293 cells (DiscoveRx, cat: 93-0201C1). Cell cultures were maintained in media: DMEM (Invitrogen Cat#12430-054) supplemented with 10% HI FBS (Invitrogen Cat#16140-071), 1% L-glutamine (Invitrogen Cat#25030-081), 0.2 mg/ml Hygromycin B (Invitrogen Cat#10687-010), 600 μg/mL G418 (Invitrogen Cat#10131-035), and 1× Penn/Strep (Invitrogen 15140-122). After cell expansion, aliquots were cryo-stored in media containing 5% DMSO (Pierce Cat#20684).
(§2) One day prior to experiments media was warmed to 37° C. and the cryo-stored cells were thawed in a 37° C. water bath. The cells were then added to media (10× volume) and the mixture was centrifuged at 1000 RPM for 5 min. The supernate was removed and the cells were re-suspended in media. A sample of the cell suspension was evaluated on a Cedex XS automated cell counter (Innovatis Systems) to determine viable cells/ml. Additional media was added to the cells to achieve a final cell density of 4E5 cells/mL. The cells were then plated into 384 well PDL white solid bottom plates (Greiner, Cat#781945) at 20 μL per well using a Multidrop (Thermo Scientific). Cells were removed from Row P (location of cAMP standards). Two columns of cells were plated into a clear bottom 384 well PDL coated plate (Greiner, Cat#781944) to view confluence the day of the assay. The cell plates were lidded and stored for 15 minutes in a hood, then transferred to an incubator (37° C., 5% CO2, 95% humidity) overnight.
DMSO was added to all wells of 384 well V bottom polystyrene plate (Greiner, Cat#781280) except to columns 1 and 13, rows O and P and wells M13-M23 and N13-N23. Test compounds (60 μL, 10 mM) were added to Column 1 and 13 (A1 through N1 and A13 through L13). Test compounds were serially diluted 1/3 by transferring and mixing 20 μl sample with 40 μL DMSO.
DMSO (40 μL) was added to wells of 384 well V bottom polystyrene plate: O2 through O11, M14 through M23, N14 through N23, and O14 through O23. AM630 (also known as [6-iodo-2-methyl-1-[2-(4-morpholinyl)ethyl]-1H-indol-3-yl](4-methoxyphenyl)-methanone, Cayman Chemical, Cat#10006974) (60 μL, 10 mM) was added to O1; and 1-(2,4-dichlorophenyl)-7-[(4-fluorophenyl)methylene]-4,5,6,7-tetrahydro-N-1-piperidinyl-1H-benzimidazole-3-carboxamide (60 μL, 10 mM) was added to N13. The control was serially diluted 1/3 by transferring and mixing 20 μl sample with 40 μL DMSO. This process resulted 11 doses per control, 10 mM to […].
Cells plated the day prior to the assay in clear bottom plates were viewed on an inverse microscope to ensure confluency in the range of 60-75%. […]

[2] = target: Human CB1R (Cannabinoid receptor 1) (Homo sapiens, UniProt P21554); assay: CB-1 in vitro cAMP (HTRF) assay; assay type: cell-based; settings: HEK cells, cAMP HTRF, 250 nM forskolin; mean where tested more than once; read-out: CB1 HEK_cAMP EC50
Human CB1R (Cannabinoid receptor 1), sequence (P21554 whole entry): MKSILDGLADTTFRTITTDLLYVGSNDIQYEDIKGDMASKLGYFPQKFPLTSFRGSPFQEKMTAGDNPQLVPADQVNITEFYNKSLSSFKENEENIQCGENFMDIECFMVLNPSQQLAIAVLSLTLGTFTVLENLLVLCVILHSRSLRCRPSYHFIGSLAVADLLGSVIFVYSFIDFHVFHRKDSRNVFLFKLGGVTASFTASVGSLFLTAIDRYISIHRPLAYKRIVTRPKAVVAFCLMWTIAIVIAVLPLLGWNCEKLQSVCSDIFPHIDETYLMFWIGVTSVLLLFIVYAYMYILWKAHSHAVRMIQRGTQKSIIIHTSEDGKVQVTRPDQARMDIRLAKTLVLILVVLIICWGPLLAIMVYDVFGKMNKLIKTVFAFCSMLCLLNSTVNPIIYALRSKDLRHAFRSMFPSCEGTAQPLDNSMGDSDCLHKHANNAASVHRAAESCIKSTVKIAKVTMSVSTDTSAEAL
Text: as §1
Human CB1R (Cannabinoid receptor 1) was stably transfected in HEK-293 cells (DiscoveRx, cat: 93-0200C1). Human CB2R (Cannabinoid receptor 2) was stably transfected in HEK-293 cells (DiscoveRx, cat: 93-0201C1).
as §2, with “The cells were then plated into 384 well PDL white solid bottom plates (Greiner, Cat#781945) at 20 μL per well using a Multidrop (Thermo Scientific).” left out, “Two columns of cells were plated into a clear bottom 384 well PDL coated plate (Greiner, Cat#781944) to view confluence the day of the assay.” left out
Test compounds (60 μL, 10 mM) were added to Column 1 and 13 (A1 through N1 and A13 through L13). Test compounds were serially diluted 1/3 by transferring and mixing 20 μl sample with 40 μL DMSO.
DMSO (40 μL) was added to wells of 384 well V bottom polystyrene plate: O2 through O11, M14 through M23, N14 through N23, and O14 through O23. […] The control was serially diluted 1/3 by transferring and mixing 20 μl sample with 40 μL DMSO. This process resulted 11 doses per control, 10 mM to 0.5 μM.
Cells plated the day prior to the assay in clear bottom plates were viewed on an inverse microscope to ensure confluency in the range of 60-75%.
A FLEXDROP (Perkin Elmer) was cleaned with ethanol then water, and primed with Buffer 2. A 384 well V bottom polypropylene plate containing d2 labelled cAMP and a second 384 well V bottom polypropylene plate containing anti-cAMP was prepared (50 μl per well). Media as “dumped” from the cell plate and 30 μL Buffer 1 was added to each well using a Multidrop. The content of the cell plate was again “dumped” and 10 μL Buffer 2 was added to each well using a Flexdrop. […] The cell plate was mixed (Speed 6, Lab-Line Instruments Titer Plate Shaker) and centrifuged (1000 RPMs, 1 min). […] The cell plate was again mixed (speed 6) and centrifuged (1000 RPMs, 1 min). The cell plate was incubated for 30 minutes at room temperature (˜27° C.). The contents of row P were removed and the cAMP standard dilutions were added in duplicate to Row P (P1-12 and P13-24). After incubation, 6 μL d2 labelled cAMP and 6 μL of Anti-cAMP were added to all wells of the cell plate using a BioMek FX (Beckman Coulter). The cell plate was again mixed (speed 6) and centrifuged (1000 RPMs, 1 min) and was incubated for 60 minutes in the dark at room Temp (˜27° C.).
After this final incubation, the cell plate was read in HTRF mode (fluorescence at 665 nm and 620 nm) on an Envision plate Reader (Perkin Elmer). The Envision reader outputs a ratio of channel 1/channel 2 fluorescence×10,000 (Normalized signal (NS)). Amount of cAMP in nM was calculated for each well (based on NS) from a cAMP standard curve located on each plate (at P1-12 and P13-24). EC50 values were determined from a 4-point fit (Hill equation) of a single 11-point compound dosing. Hill slope was fixed at 1.0.

Human CB2R (Cannabinoid receptor 2), sequence (P34972 whole entry): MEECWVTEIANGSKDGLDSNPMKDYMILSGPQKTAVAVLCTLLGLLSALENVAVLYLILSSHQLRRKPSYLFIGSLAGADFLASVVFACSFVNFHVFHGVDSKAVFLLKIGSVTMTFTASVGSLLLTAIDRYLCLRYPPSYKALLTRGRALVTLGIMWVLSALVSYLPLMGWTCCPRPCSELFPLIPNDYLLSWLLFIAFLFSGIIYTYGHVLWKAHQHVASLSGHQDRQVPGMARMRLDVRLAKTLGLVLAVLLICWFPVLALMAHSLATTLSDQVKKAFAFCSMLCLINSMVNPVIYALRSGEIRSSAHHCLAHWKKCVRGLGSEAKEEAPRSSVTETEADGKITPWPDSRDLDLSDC

- EC50 [1]: > 10000 nM
- EC50 [2]: 137 nM
SMILES: O=S(=O)(N1CCC(n2c(C3CCCC3)nc3ccc(C(c4ccc(Cl)cc4)c4nccs4)cc32)CC1)C(F)(F)F (centres unmarked) [Example 395]

- EC50 [1]: > 10000 nM
- EC50 [2]: 212 nM
SMILES: Clc1ccc(C(c2ccc3nc(C4CC4)n(C4Cc5ccccc5C4)c3c2)c2nccs2)cc1 (centres unmarked) [Example 362]

- EC50 [1]: 5120 nM
- EC50 [2]: 104 nM
SMILES: O=C(O)c1cccc(NC2CCC(n3c(C4CC4)nc4ccc(C(c5ccc(Cl)cc5)c5ccc(Cl)cc5)cc43)CC2)c1 (centres unmarked) [Example 40]

- EC50 [1]: 4030 nM
- EC50 [2]: 6.2 nM
SMILES: O=S(=O)(N1CCC(n2c(C3CC3)nc3ccc(C(c4ccc(Cl)cc4)c4ccc5c(c4)OCO5)cc32)CC1)C(F)(F)F (centres unmarked) [Example 321]

- EC50 [1]: 8000 nM
- EC50 [2]: 311 nM
SMILES: O=C(O)COc1cccc(N2CCC(n3c(C4CC4)nc4ccc(C(c5ccc(Cl)cc5)c5ccc(Cl)cc5)cc43)CC2)c1 [Example 154]

- EC50 [1]: > 10000 nM
- EC50 [2]: > 10000 nM
SMILES: CC(C)Cc1nc2ccc(C(c3ccc(Cl)cc3)c3nccs3)cc2n1-c1cccc(Cl)c1 (centres unmarked) [Example 433]

- EC50 [1]: > 10000 nM
- EC50 [2]: 1690 nM
SMILES: CC(C)(C)OC(=O)N1CC(c2nc3ccc(C(c4ccc(Cl)cc4)c4nccs4)cc3n2CCc2cccc(Cl)c2)C1 (centres unmarked) [Example 406]

- EC50 [1]: > 10000 nM
- EC50 [2]: 2040 nM
SMILES: NC(=O)c1ccc(S(=O)(=O)N2CCC(n3c(C4CC4)nc4ccc(C(CO)(c5ccc(Cl)cc5)c5ccc(Cl)cc5)cc43)CC2)cc1 [Example 227]

- EC50 [1]: 5250 nM
- EC50 [2]: 21.5 nM
SMILES: NC(=O)COc1ccc(N2CCC(n3c(C4CC4)nc4ccc(C(c5ccc(Cl)cc5)c5ccc(Cl)cc5)cc43)CC2)cc1 [Example 142]

- EC50 [1]: > 10000 nM
- EC50 [2]: 22.7 nM
SMILES: CCc1nc2ccc(C(c3ccc(Cl)cc3)c3nccs3)cc2n1-c1cccc(Cl)c1 (centres unmarked) [Example 434]

- EC50 [1]: > 10000 nM
- EC50 [2]: 25 nM
SMILES: COc1cccc(-n2c(C3CC3)nc3ccc(C(c4ccc(Cl)cc4)c4ccc(Cl)cc4)cc32)c1 [Example 181]

- EC50 [1]: > 10000 nM
- EC50 [2]: 53.2 nM
SMILES: NC(=O)[C@H]1CC[C@H](n2c(C3CC3)nc3ccc(C(c4ccc(Cl)cc4)c4ccc(Cl)cc4)cc32)CC1 [Example 135]

- EC50 [1]: 5730 nM
- EC50 [2]: 36.7 nM
SMILES: O=C(NCCO)c1cccc(S(=O)(=O)N2CCC(n3c(C4CC4)nc4ccc(C(c5ccc(Cl)cc5)c5ccc(Cl)cc5)cc43)CC2)c1 [Example 205]

- EC50 [1]: > 10000 nM
- EC50 [2]: 184 nM
SMILES: Clc1ccc(C(c2ccc3nc(C4CC4)n(C4CCc5ccccc5C4)c3c2)c2nccs2)cc1 (centres unmarked) [Example 342]

- EC50 [1]: > 10000 nM
- EC50 [2]: 21.5 nM
SMILES: Oc1cccc(N[C@H]2CC[C@H](n3c(C4CC4)nc4ccc(C(c5ccc(Cl)cc5)c5ccc(Cl)cc5)cc43)CC2)c1 [Example 28]

- EC50 [1]: > 10000 nM
- EC50 [2]: 524 nM
SMILES: O=S(=O)(N1CCC(n2c(-c3ccccn3)nc3ccc(C(c4ccc(Cl)cc4)c4nccs4)cc32)CC1)C(F)(F)F (centres unmarked) [Example 385]

Second part, the molecule before the results:

SMILES: O=C(O)COc1ccc(N2CCC(n3c(C4CC4)nc4ccc(C(c5ccc(Cl)cc5)c5ccc(Cl)cc5)cc43)CC2)cc1 [Example 152]
- EC50 [1]: 6400 nM
- EC50 [2]: 1590 nM

SMILES: COC(=O)c1cccc(N2CCC(Cn3c(C4CC4)nc4ccc(C(c5ccc(Cl)cc5)c5ccc(Cl)cc5)cc43)CC2)c1 [Example 13]
- EC50 [1]: > 10000 nM
- EC50 [2]: > 10000 nM

SMILES: Cc1ccc(S(=O)(=O)N2CCC(n3c(C4CC4)nc4ccc(C(c5ccc(Cl)cc5)c5ccc(Cl)cc5)cc43)CC2)cc1C(N)=O [Example 168]
- EC50 [1]: > 10000 nM
- EC50 [2]: 91.2 nM

SMILES: O=C(OC1CCCC1)N1CCC(n2c(C3CC3)nc3ccc(C(c4ccc(Cl)cc4)c4ccc(Cl)cc4)cc32)CC1 [Example 71]
- EC50 [1]: 4880 nM
- EC50 [2]: 27.4 nM

SMILES: Clc1ccc(C(c2ccc3ncn(CCc4cccc(Cl)c4)c3c2)c2nccs2)cc1 (centres unmarked) [Example 438]
- EC50 [1]: > 10000 nM
- EC50 [2]: 315 nM

SMILES: C=C(CO)c1nc2ccc(C(c3ccc(Cl)cc3)c3ccc(Cl)cc3)cc2n1C1CCN(S(=O)(=O)C(F)(F)F)CC1 [Example 118]
- EC50 [1]: > 10000 nM
- EC50 [2]: 98 nM

SMILES: Clc1ccc(-c2nc3ccc(C(c4ccc(Cl)cc4)c4nccs4)cc3n2C2CCCCC2)cc1 (centres unmarked) [Example 442]
- EC50 [1]: > 10000 nM
- EC50 [2]: 3400 nM

SMILES: O=S(=O)(c1ccc(O)cc1)N1CCC(n2c(C3CC3)nc3ccc(C(c4ccc(Cl)cc4)c4ccc(Cl)cc4)cc32)CC1 [Example 257]
- EC50 [1]: > 10000 nM
- EC50 [2]: 5.4 nM

SMILES: CCOC(=O)c1nc2ccc(C(c3ccc(Cl)cc3)c3nccs3)cc2n1C1CCN(S(=O)(=O)C(F)(F)F)CC1 (centres unmarked) [Example 387]
- EC50 [1]: > 10000 nM
- EC50 [2]: 551 nM

SMILES: NC(=O)c1ccc(CN2CCC(n3c(C4CC4)nc4ccc(C(c5ccc(Cl)cc5)c5ccc(Cl)cc5)cc43)CC2)s1 [Example 126]
- EC50 [1]: 7800 nM
- EC50 [2]: 4.2 nM

SMILES: O=C(CO)N1CCC(n2c(C3CC3)nc3ccc(C(c4ccc(Cl)cc4)c4ccc(Cl)cc4)cc32)CC1 [Example 240]
- EC50 [1]: 2100 nM
- EC50 [2]: 14.9 nM

SMILES: O=S(=O)(N1CCC(n2c(CO)nc3ccc(C(O)(c4ccc(Cl)cc4)c4ccc(Cl)cc4)cc32)CC1)C(F)(F)F [Example 293]
- EC50 [1]: > 10000 nM
- EC50 [2]: 7430 nM
